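1) Cells in 96-well plates. 2) Compound, 48 h, 5 concentrations. 3) Linear interpolation between surrounding doses. 4) Unreached endpoint = highest concentration. Abbreviation: GI50, concentration required for 50% inhibition of growth. TGI marks complete inhibition of growth.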
What was measured:
Assay in all cases: NCI anticancer screen, dose series, 48 h
HCC-2998 colon = test system: HCC-2998 colon
SNB-75 CNS = test system: SNB-75 CNS
SK-MEL-28 melanoma = test system: SK-MEL-28 melanoma
MCF7 breast = test system: MCF7 breast
NCI-H522 lung = test system: NCI-H522 lung
TK-10 renal = test system: TK-10 renal
HOP-92 NSCLC = test system: HOP-92 NSCLC
COLO 205 colon = test system: COLO 205 colon
UACC-62 melanoma = test system: UACC-62 melanoma
HCT-116 colon = test system: HCT-116 colon

| SMILES | TGI (HCC-2998 colon) [µM] | TGI (SNB-75 CNS) [µM] | TGI (SK-MEL-28 melanoma) [µM] | TGI (MCF7 breast) [µM] | TGI (NCI-H522 lung) [µM] | TGI (TK-10 renal) [µM] | TGI (HOP-92 NSCLC) [µM] | TGI (COLO 205 colon) [µM] | TGI (UACC-62 melanoma) [µM] | TGI (HCT-116 colon) [µM] | GI50 (HCC-2998 colon) [µM] | GI50 (SNB-75 CNS) [µM] | GI50 (SK-MEL-28 melanoma) [µM] | GI50 (MCF7 breast) [µM] | GI50 (NCI-H522 lung) [µM] | GI50 (TK-10 renal) [µM] | GI50 (HOP-92 NSCLC) [µM] | GI50 (COLO 205 colon) [µM] | GI50 (UACC-62 melanoma) [µM] | GI50 (HCT-116 colon) [µM] |
| --- | --- | --- | --- | --- | --- | --- | --- | --- | --- | --- | --- | --- | --- | --- | --- | --- | --- | --- | --- | --- |
| O=C(O)C(Br)C(Br)C(=O)O (stereo not given) | > 100 | > 100 | > 100 | > 100 | > 100 | > 100 | > 100 | > 100 | > 100 | > 100 |  |  |  |  |  |  |  |  |  |  |
| CN(C)C[C@H]1CCn2c(c(C3=C(c4cn(C)c5ccccc45)C(=O)NC3=O)c3ccccc32)C1 | 9.16 | 5.16 | 8.02 | 9.36 | 9.17 | 8.77 | 10.9 | 7.5 | 7.98 | 7.27 | 4.86 | 0.562 | 4.25 | 4.25 | 4.86 | 3.61 | 4.19 | 3.71 | 4.15 | 3.47 |
| CCOc1cc(C(=O)O)c2c(ccc3ccc(OC)c(OC)c32)c1OC | > 100 | > 100 | > 100 | > 100 | > 100 | > 100 | > 100 | > 100 | > 100 | > 100 |  |  |  |  |  |  |  |  |  |  |
| Nc1ncn(C2OC(COP(=O)(O)O)C(O)C2O)c(=O)n1 (stereo not given) | > 100 | > 100 | > 100 | > 100 | > 100 | > 100 | > 100 | > 100 | > 100 | > 100 |  |  |  |  |  |  |  |  |  |  |
| Cc1cc(C(=O)Nc2cc(Oc3ccc4nc(NC(=O)C5CC5)cn4n3)ccc2C)n(C)n1 | > 10 | > 10 | > 10 | > 10 | > 10 | > 10 | > 10 | > 10 | > 10 | > 10 | > 10 | > 10 | > 10 | 6.41 | > 10 | > 10 | 3.27 | > 10 | > 10 | 5.66 |
| COC12C=C/C(=C(/C(=O)OCCSc3ccnn3C)C(=O)CCCCCCCCC3(OC)C=C/C(=C(/C(=O)OCCSc4ccnn4C)C(=O)CCCCCCCC1)O3)O2 | 1.11 | 4.9 | 8.24 | 15.2 | 1.62 | > 32.5 | 2.55 | 2.15 | 1.85 | 1.37 | 0.584 | 0.999 | 1.09 | 0.927 | 0.648 | 2.35 | 0.847 | 0.814 | 0.716 | 0.66 |
| CC(CN(C)C)S(=O)(=O)c1ccc(-c2cnc(N)c(C(=O)Nc3ccccc3)n2)cc1 (stereo not given) | 16.6 | 35.5 | 21.4 | 38.8 | 35.9 | > 57.2 | 34.7 | 8.56 | 21.6 | 21.2 | 0.973 | 2.58 | 7.22 | 1.58 | 17.5 | 11.5 | 6.86 | 2.74 | 6.28 | 4.88 |
| Clc1ccccc1[C@@H]1C[C@@H]2Cc3cc(Br)c4ccccc4c3N1O2 | > 100 | > 100 | > 100 | > 100 | 6.51 | > 100 | 35.6 | 74 | > 100 | > 100 | 4.19 | 3.51 | 6.92 | 3.61 | 2.31 | 5.54 | 3.07 | 3.95 | 4.29 | 4.1 |
| CC(=O)NNc1nc(C)c(C(/C=C/c2ccc([N+](=O)[O-])cc2)=N/NC(N)=O)s1 | > 100 | > 100 | > 100 | > 100 | > 100 | > 100 | > 100 | > 100 | > 100 | > 100 |  |  |  |  |  |  |  |  |  |  |
| Cc1ccc(-c2c(C#N)[n+](=O)c3cc(F)c(F)cc3n2[O-])cc1 | 23.5 | 34.6 | 38.4 | 38.1 | 76.9 | 6.69 | 3.84 | 38.6 | 16.1 | 5.21 | 10.3 | 19.2 | 20.5 | 5.04 | 3.43 | 2.37 | 1.68 | 19.5 | 4.25 | 1.23 |
| C=C1C(=O)O[C@H]2[C@H]1CC/C(COC(=O)c1cn(C)c3ccccc13)=C\CC[C@@]1(C)O[C@@H]21 | 3.8 | 2.32 | 3.08 | 1.98 | 1.62 | 2.3 | 2 | 2.59 | 2.74 | 2.24 | 1.81 | 1.09 | 1.55 | 0.4 | 0.399 | 1.1 | 0.365 | 1.24 | 1.26 | 1.02 |
| C/C(=N\NC(=O)CC#N)C(CN1CCCCC1)C(c1ccccc1)c1c(O)c2ccccc2oc1=O (stereo not given) | > 100 | > 100 | > 100 | 40.6 | > 100 | > 100 | 95.7 | 32.6 | > 100 | > 100 |  |  |  |  |  |  |  |  |  |  |
| O=C(O)C1CCN(Cc2oc(CO)cc(=O)c2O)C1 (stereo not given) |  | > 100 | > 100 | > 100 | > 100 | > 100 | > 100 | > 100 | > 100 | > 100 |  |  |  |  |  |  |  |  |  |  |
| Cc1cn(CCC(N)C(=O)O)c(=O)[nH]c1=O (stereo not given) |  | > 100 | > 100 | > 100 | > 100 | > 100 | > 100 | > 100 | > 100 | > 100 |  |  |  |  |  |  |  |  |  |  |
| COc1cc(-c2nn(-c3cccc(NC(=O)NCCNS(=O)(=O)c4ccc(Cl)cc4)c3)cc2-c2ccncc2)ccc1Cl | 5.09 | > 100 | 13.2 | > 100 | 1.35 | 9.26 | 5.45 |  | 2.39 | 2.47 | 1.69 | 0.353 | 1.48 | 0.363 | 0.311 | 2.81 | 0.886 |  | 0.499 | 0.381 |
| CCn1c(-c2c(Cl)cc(O)cc2Cl)cc2c(Cl)cc(O)cc21 |  | 20.9 | 10.1 | 25.2 | 6.68 | 59.2 | 59.4 | 36.8 | 32.8 | > 100 |  |  |  |  |  |  |  |  |  |  |

— PubChem BioAssay (NCI)
